The conditions of series [1]: unprotected lysine 10 equiv, 5 days, pH 7.4 and pH 8.5, room temperature.
Description: To this end, unprotected lysine (10 equiv) was incubated with 1a for 5 days (pH 7.4 and pH 8.5, room temperature).
The assay was performed analogously to glutathion reactivity using L -lysine. In addition to pH 7.4
The reaction was monitored for a total
of 5 days and aliquotes were taken at indicated timepoints and analyzed via UPLC -UV/MS.
The target in a further series is T1, BTK in RAMOS cells (Homo sapiens, UniProt Q06187).
T1 construct: we performed a gel-based ABPP experiment using RAMOS cells; host or cells: RAMOS
The series is described as follows: Gel-based ABPP of BTK probes in RAMOS cells. Conditions: 250 nM, 1 h, 37 °C. In kind it is cell-based. From the text:
Motivated by these promising results, we wanted to extend the scope toward a different class of kinase inhibitors. […] Inspired by these findings, we synthesized a series of VPA probes based on the pyrazolo[3,4-d]-pyrimidine scaffold (8–11, Figure a), each harboring a different aromatic linker. To compare their reactivity and selectivity for BTK, we performed a gel-based ABPP experiment using RAMOS cells. […] In contrast, for all four PA probes, only one intense band was obtained at the same height as BTK. […] Analogously to Afatinib-derived probe 4a, we wanted to investigate whether one stereoisomer might show preferential binding.
(b) Comparison of the in-cell reactivity profiles of BTK probes 8–12 in RAMOS cells (250 nM, 1 h, 37 °C) analyzed by gel-based ABPP. […]
Fluorescence was monitored over 4 h at 30 °C every 60 seconds (λex = 360 nm and λem = 492 nm).
Background‑subtracted fluorescence intensity (RFU) was plotted against time (s), and data were fitted to a single‑phase association model: […]
4.7 In-cell protein labeling and in -gel fluorescence analysis […]
Afterwards, the precipitate was redissolved in 40 µl 8 M urea (100 mM Tris, pH 8), 8 µl Laemmli buffer were added and the samples were denatured at 95 °C for 5 minutes. Proteins were seperated via SDS - PAGE (12% or 4-20% acrylamide gels) and analyzed on a Gel Doc XR+ (Bio-Rad, USA). […]

A further series has as its system RAMOS cells. Kind of series: Streptavidin pull-down with BTK probes in RAMOS cells (LFQ). In kind it is cell-based, human. Particulars: 10 μM probe, log2-fold change >2.5, p <0.01. As for the experimental part: (b) Comparison of the in-cell reactivity profiles of BTK probes 8–12 in RAMOS cells (250 nM, 1 h, 37 °C) analyzed by gel-based ABPP. (c) Superposition of the two stereoisomers of 9 covalently docked onto the crystal structure of BTK (PDB: 5P9J).
To verify the identity of the protein(s) labeled by our best-performing probe 9, we performed in-cell labeling followed by streptavidin pull-down coupled to LC-MS/MS analysis.
4.8 In-cell protein labeling and s ample preparation for proteomic pull-down Cells were cultured, treated and lysed as described in 4.4. Lysates (approx. 200 μg of protein each) […]
Afterwards, the samples we re processed according to a procedure published by Becker et al. 10: A total of 50 μl of mixed hydrophobic and hydrophilic carboxylate -coated magnetic beads (1:1, prewashed with PBS; Seramag™, Cytavia) was added to the click reaction mixture followed by 600 μl of absolute ethanol to precipitate the proteins. Beads were washed thrice with of 80% ethanol and proteins were eluted by two sequential washes of 0.2% SDS in PBS. […]
The obtained raw-data was analyzed using FragPipe (v20 to 21) using the built-in LFQ-MBR workflow using the whole human proteome as search space and applying the following MSFragger11 settings: […]

T1 sequence (Q06187 whole entry): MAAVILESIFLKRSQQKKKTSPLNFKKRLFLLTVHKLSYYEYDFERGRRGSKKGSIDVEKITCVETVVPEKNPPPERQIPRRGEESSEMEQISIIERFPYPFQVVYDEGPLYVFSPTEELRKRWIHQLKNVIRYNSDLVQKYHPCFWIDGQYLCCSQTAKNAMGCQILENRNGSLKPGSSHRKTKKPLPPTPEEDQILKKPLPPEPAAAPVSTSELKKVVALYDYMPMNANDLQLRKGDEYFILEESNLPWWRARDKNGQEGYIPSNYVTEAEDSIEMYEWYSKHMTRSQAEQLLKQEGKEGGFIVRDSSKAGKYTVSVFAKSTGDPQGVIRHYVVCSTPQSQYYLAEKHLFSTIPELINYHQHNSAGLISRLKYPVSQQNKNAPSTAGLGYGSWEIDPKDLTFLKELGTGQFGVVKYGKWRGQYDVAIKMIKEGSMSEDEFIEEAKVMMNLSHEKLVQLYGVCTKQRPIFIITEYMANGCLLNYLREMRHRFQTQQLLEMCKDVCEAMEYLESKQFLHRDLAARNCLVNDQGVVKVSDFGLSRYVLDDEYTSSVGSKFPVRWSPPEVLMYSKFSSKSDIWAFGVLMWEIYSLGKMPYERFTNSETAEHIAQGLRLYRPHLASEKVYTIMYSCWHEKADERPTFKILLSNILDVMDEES

For `C=CP(=O)(Nc1ccccc1)OCC` (stereo not drawn) [1a], the “reactivity toward L-lysine / buffer stability” value in series [1] is “no reaction or degradation products were detected”.
`C#Cc1cccc(Oc2ccc(-c3nn(C4CCCN(C(=O)C=C)C4)c4ncnc(N)c34)cc2)c1` (stereo not drawn) [compound 12, PF-06658607, reference compound]: at BTK in RAMOS cells, the “in-cell reactivity profile (gel bands)” value is recorded as “additional prominent off-target band around 60 kDa”. For the same molecule, in the series with RAMOS cells, the off-targets significantly enriched is given as 73.

The values above are taken from paper PMC12951430, “Modular Vinyl Phosphonamidates for Cysteine-Directed Protein Targeting” (Journal of the American Chemical Society, 2026).
